One assay concerns Pseudomonas aeruginosa. As to the kind of experiment: Test of resistance to field planting (Pseudomonas aeruginosa planting model). It is filed as in vivo, Mice of Kunming Species. The note with it: three dosages (high, middle, low), infused abdominally each day, feces culture. From the text:
1. Animal: Mice of Kunming Species, Provided by the 3rd Military Medical University P.R. China.
Firstly, the animals used for experiment were infused abdominally with a suspension of Pseudomonas aeruginosa so as to make a Pseudomonas aeruginosa planting model, the mice that have Pseudomonas aeruginosa in the feces specimen cultured continuously for three days are deemed as positive. 32 mices which were positive in the experiment for making model were selected and divided into four groups, that is, three experimental groups with different dosages and one control group, eight mice in each group. The experimental groups are infused abdominally with N-acetyl-D glucosamine each day according to a schedule, while the control group is infused with saline solution. Cultivate the excrement every day, observe the saturation of Pseudomonas aeruginosa planting growth.

The next assay relates to liver lysosome membrane. As to the kind of experiment: Test of stabilizing lysosome membrane (rat model of endotoxin shock). Format: in vivo, wistar rat. The note with it: rat with endotoxin shock, versus saline control. From the text:
• 1. Animals: wistar rat, provided by the 3rd Military Medical University P.R. China. • 2. Method: setting up a rat model of endotoxin shock, at the same time, for the liver lysosome of rat, carry out a test of stabilizing membranes in vivo and in vitro. The model animals were divided into two groups, in the experimental group, N-acetyl-D-glucosamine was used to carry out the treatment, in the control group, saline solution was used to carry out the same treatment. The condition of liver lysosome mambrane was reflected by the activity of acidic phosphatase (ACP). • 3. Result: the activity of free ACP in the control group and that in the experimental group are obviously different. • 4. […] V. Human on Trial

Assay [1] in a line: Human on trial (clinic test, peri-anal diseases). It is filed as in vivo. The note with it: pharmaceutical preparations made from the compound, humans suffering from peri-anal diseases.

For `CC(=O)N[C@@H]1[C@@H](O)[C@H](O)[C@@H](CO)O[C@H]1O` [compound of formula (I), N-acetyl-D-glucosamine], the “resistance to Pseudomonas aeruginosa planting in intestines” value with Pseudomonas aeruginosa is “able to effectively resist Pseudomonas aeruginosa in intestines”. For the same compound, the “stabilization of liver lysosome membrane” value in the assay on liver lysosome membrane (in vivo and in vitro) is reported as “able to effectively stabilize liver lysosome membrane”. The “release of acidic phosphatase (ACP)” value in the assay on liver lysosome membrane (liver lysosome) is recorded as “decrease the release of acidic phosphatase”. For the same compound, in assay [1], the “relief of peri-anal symptoms” value was “able to eliminate or relieve quickly the peri-anal uncomfortableness, pain, exudation, pruritus and the like”.

Source of the values: patent publication US20050119224A1, “Use of n-acetyl-d-glucosamine in the manufacture of pharmaceutical useful for adjuvant treatment of perianal disease” (priority 2001, published 2005).
